Data on six molecules can be found in paper PMC8151276, “An Integrated Approach toward NanoBRET Tracers for Analysis of GPCR Ligand Engagement” (Molecules, 2021).

Structures are written as SMILES.

Type in all cases: binding
One test addresses T1, CCKBR (Homo sapiens, UniProt P32239).
T1 construct: purchased Promega (in-house HiBiT-GPCR construct library, NanoBRET)
T1 sequence (P32239 1-447): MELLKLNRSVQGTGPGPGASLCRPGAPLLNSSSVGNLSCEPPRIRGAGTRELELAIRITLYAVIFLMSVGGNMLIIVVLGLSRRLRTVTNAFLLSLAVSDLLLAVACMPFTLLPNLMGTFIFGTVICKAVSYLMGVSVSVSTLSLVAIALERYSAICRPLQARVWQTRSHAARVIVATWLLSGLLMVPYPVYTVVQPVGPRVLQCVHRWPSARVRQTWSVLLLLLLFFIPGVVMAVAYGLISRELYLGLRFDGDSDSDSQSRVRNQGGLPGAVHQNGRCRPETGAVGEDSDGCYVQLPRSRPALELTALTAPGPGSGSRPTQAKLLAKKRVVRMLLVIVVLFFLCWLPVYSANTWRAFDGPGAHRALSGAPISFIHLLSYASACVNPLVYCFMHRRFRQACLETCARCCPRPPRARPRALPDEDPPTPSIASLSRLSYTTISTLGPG
Kind of test: NanoBRET screen HiBiT-CCKBR in HEK293. The procedure:
(§1) Each tracer candidate was screened across the entire library of HiBiT-GPCR constructs using NanoBRET as the detection modality. As depicted in Figure 4A, the specificity of interactions was evaluated through decrease in BRET due to competitive displacement of a bound tracer by excess parental compound. Each tracer was analyzed for binding to each HiBiT-GPCR fusion in the absence and in the presence of competing parental compound. Briefly, HEK293 cells were transfected with HiBiT-GPCR constructs diluted into promoterless DNA to reduce expression and maximize translocation to the cell surface. Each tracer candidate was then screened at concentrations of 1 μM and 0.1 μM across cells expressing these fusions. Cells were treated for 1.5 h with tracer either alone or in the presence of 20 μM competing parental compound (i.e., control). BRET was measured upon addition of purified LgBiT and subsequent complementation with HiBiT genetically fused to a GPCR. The specificity of interactions was assessed through a decrease in BRET signal due to competitive displacement of the bound tracer. To further gauge the robustness of these interactions, the fold response over the control (i.e., BRETtracer/BRETcontrol) was calculated. We chose a 1.5-fold response, which translates to ≥7-fold signal over noise as the minimal threshold required to score an interaction as positive. […]. Below we highlight the screening results obtained for our exemplary fluorescent tracers based on Clozapine, Amitriptyline and AZD1283.
(§2) HiBiT-GPCR DNA constructs were diluted in 10 mM Tris pH 8 to a final concentration of 0.01 μg/μL, arrayed in 96-well plates and stored at −20 °C. For transfection, HEK293 cells were suspended in Opti-MEM (without phenol red) supplemented with 2% fetal bovine serum (Seradigm) and 100 units/mL penicillin–streptomycin (Gibco) at a final concentration of 220,000 cells/mL and dispensed into white 96-well plates at 90 μL/well. Subsequent transfections and screens were carried using an Agilent Bravo Automated Liquid Handling Platform. First, the 96-well HiBiT DNA arrays were diluted 25-fold in Opti-MEM (without serum or phenol red) to a final concentration of 0.0004 μg/μL and 20 μL of the diluted DNAs were transferred into new 96-well plates. Next, promoterless carrier DNA (1 μg/μL) was diluted 25-fold (0.04 μg/μL) and then dispensed into the diluted arrays at 20 μL/well. Following brief mixing, Viafect transfection reagent (Promega) diluted 16-fold into Opti-MEM was dispensed into the plates at 40 μL/well. After mixing by pipetting, plates were incubated for 10 min on the pipetting station deck. The DNA-transfection reagent complexes were then added to plates containing cells. To facilitate the screen, 10 μL of DNA-transfection reagent complexes were added in duplicates to the top 4 and bottom 4 rows, resulting in two identical 48-well arrays per plate. Plates with transfected cells were incubated for 18–20 h at 37 °C/5% CO2. A screen of each tracer across the entire library using two different concentrations requires duplicate plates of transfected cells. Depending on the number of tracers being screened, transfections can be scaled up using the same ratios. The next day, for each tracer, four 20× screening solutions in tracer dilution buffer (Promega) were prepared: two duplicates at final concentration of 20 μM and two duplicates at a final concentration of 2 μM. A competing unmodified compound was added to one of each duplicate at a final concentration of 400 μM. The four resulting solutions were diluted 4-fold in Opti-MEM without serum or phenol red to generate 5× solutions (5 µM and 0.5 µM tracer +/− 100 μM competing compound). To screen the library, a BioTek MultiFlo FX liquid dispenser was used to dispense 22.5 µL of tracer solution to the top 4 rows and 22.5 µL tracer + competing compound solution to the 4 bottom rows. Plates were briefly mixed on an orbital shaker and incubated for 1.5 h at room temperature. […]
For orientation: BRET reads energy transfer from a luciferase to a nearby fluorophore.

A further test concerns the target T2, C5AR1 (Homo sapiens, UniProt P21730).
T2 construct: purchased Promega (in-house HiBiT-GPCR construct library, NanoBRET)
T2 sequence (P21730 1-350): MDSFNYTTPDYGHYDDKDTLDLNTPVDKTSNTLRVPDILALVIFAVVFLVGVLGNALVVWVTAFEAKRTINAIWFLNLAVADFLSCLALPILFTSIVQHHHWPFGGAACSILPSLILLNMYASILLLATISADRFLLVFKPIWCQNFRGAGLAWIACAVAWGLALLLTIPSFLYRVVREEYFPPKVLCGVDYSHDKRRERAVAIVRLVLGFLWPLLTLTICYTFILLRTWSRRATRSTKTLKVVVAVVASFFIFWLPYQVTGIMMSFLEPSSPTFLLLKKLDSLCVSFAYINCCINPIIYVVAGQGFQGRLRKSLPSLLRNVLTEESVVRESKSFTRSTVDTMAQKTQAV
Kind of test: NanoBRET screen HiBiT-C5AR1 in HEK293. The procedure: as §1, §2

Another test concerns the target T3, P2RY4 (Homo sapiens, UniProt P51582).
T3 construct: purchased Promega (in-house HiBiT-GPCR construct library, NanoBRET)
Kind of test: NanoBRET screen HiBiT-P2RY4 in HEK293. The procedure: as §1, §2

A further test deals with T4, P2RY12 (Homo sapiens, UniProt Q9H244).
T4 construct: purchased Promega (in-house HiBiT-GPCR construct library, NanoBRET)
Kind of test: NanoBRET screen HiBiT-P2RY12 in HEK293. On the procedure: as §1, §2

A further test concerns the target T5, PTGER2 (Homo sapiens, UniProt P43116).
T5 construct: purchased Promega (in-house HiBiT-GPCR construct library, NanoBRET)
Kind of test: NanoBRET screen HiBiT-PTGER2 in HEK293. On the procedure: as §1, §2

A further test concerns the target T6, PTGIR (Homo sapiens, UniProt P43119).
T6 construct: purchased Promega (in-house HiBiT-GPCR construct library, NanoBRET)
Kind of test: NanoBRET screen HiBiT-PTGIR in HEK293. The procedure:
as §1, §2

The target in a further test is T7, LHCGR (Homo sapiens, UniProt P22888).
T7 construct: purchased Promega (in-house HiBiT-GPCR construct library, NanoBRET)
Kind of test: NanoBRET screen HiBiT-LHCGR in HEK293. The procedure: as §1, §2

The mark [1] stands for this setting: tracer at 0.1μM, listed as amitriptyline-b-2-NB590.

T5 sequence (P43116 whole entry): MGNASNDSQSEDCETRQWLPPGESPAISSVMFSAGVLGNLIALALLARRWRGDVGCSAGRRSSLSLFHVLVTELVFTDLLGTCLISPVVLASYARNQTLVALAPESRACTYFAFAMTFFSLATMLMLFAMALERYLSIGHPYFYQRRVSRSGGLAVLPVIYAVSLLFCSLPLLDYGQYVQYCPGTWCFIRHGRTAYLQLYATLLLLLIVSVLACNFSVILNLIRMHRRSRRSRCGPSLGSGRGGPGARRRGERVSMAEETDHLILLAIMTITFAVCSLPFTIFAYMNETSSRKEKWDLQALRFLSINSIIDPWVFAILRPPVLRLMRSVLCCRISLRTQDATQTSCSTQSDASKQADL
T6 sequence (P43119 whole entry): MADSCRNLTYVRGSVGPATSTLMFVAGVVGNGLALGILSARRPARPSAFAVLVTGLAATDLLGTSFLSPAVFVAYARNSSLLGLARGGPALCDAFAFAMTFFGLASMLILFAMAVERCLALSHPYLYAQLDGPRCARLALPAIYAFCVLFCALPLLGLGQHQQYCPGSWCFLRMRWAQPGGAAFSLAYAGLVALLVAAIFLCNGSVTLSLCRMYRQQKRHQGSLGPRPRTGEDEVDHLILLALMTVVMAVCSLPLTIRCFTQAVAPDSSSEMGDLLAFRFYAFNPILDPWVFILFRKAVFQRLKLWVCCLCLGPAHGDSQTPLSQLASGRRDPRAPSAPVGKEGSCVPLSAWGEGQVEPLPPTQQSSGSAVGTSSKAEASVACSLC
T7 sequence (P22888 27-699): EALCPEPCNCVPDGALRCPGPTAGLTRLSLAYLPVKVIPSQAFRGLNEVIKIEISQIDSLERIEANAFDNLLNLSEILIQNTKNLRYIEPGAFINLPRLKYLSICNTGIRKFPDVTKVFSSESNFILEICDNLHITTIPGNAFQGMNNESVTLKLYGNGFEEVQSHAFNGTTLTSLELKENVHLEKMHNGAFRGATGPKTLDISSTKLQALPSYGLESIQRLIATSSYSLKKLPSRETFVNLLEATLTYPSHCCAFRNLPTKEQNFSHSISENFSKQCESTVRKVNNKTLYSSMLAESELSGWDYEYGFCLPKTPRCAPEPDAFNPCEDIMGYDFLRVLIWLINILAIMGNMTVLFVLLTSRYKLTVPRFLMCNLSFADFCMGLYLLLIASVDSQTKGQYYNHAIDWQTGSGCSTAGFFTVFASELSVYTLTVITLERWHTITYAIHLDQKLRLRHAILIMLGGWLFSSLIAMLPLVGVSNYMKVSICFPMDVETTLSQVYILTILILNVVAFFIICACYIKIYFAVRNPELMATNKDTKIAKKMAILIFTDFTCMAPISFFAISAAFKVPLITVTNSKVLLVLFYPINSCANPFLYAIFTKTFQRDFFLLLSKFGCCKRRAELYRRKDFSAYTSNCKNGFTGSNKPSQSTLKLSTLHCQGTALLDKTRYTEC
T4 sequence (Q9H244 whole entry, one chain of several): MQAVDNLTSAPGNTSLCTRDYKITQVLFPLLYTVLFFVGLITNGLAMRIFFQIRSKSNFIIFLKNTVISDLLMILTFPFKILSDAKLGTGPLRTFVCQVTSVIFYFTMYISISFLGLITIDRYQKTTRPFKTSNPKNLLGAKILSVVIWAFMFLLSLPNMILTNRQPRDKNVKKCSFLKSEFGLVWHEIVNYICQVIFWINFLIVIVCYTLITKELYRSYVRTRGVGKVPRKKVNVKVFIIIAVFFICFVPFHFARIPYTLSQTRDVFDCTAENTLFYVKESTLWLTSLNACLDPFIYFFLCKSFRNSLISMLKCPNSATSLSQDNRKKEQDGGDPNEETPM
T3 sequence (P51582 whole entry): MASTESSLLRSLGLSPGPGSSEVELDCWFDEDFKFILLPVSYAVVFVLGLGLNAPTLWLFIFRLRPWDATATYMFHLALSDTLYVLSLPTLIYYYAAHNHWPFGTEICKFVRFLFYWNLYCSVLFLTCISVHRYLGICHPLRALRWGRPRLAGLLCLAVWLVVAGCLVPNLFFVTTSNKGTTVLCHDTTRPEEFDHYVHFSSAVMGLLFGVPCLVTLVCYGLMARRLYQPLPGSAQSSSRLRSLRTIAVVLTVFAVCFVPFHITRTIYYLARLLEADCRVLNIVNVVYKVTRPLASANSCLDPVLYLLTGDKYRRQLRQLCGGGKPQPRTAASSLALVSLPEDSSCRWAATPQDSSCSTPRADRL

Take `O=C(CCOCCOCCOCCOCCNC(=O)CCc1ccc2n1[B-](F)(F)[N+]1=C(c3ccc[nH]3)C=CC1=C2)NCCCN1CCN(C2=Nc3cc(Cl)ccc3Nc3ccccc32)CC1` [Clozapine-a-2-NB590]: the “NanoBRET Fold Response” value at CCKBR (CCKBR, 0.1μM tracer) was 1.01; at CCKBR (CCKBR, 1μM tracer), 1.01; at C5AR1 (C5AR1, 0.1μM tracer), 1.04; at C5AR1 (C5AR1, 1μM tracer), 1.11; at P2RY4 (P2RY4, 0.1μM tracer), 1.09; on P2RY4 (P2RY4, 1μM tracer) it was 0.96. Further, the “NanoBRET Fold Response” value is 1.00 on P2RY12 (P2RY12, 0.1μM tracer); 0.94 at P2RY12 (P2RY12, 1μM tracer); 1.01 on PTGER2 (PTGER2, 0.1μM tracer); 1.05 on PTGER2 (PTGER2, 1μM tracer); 1.04 at PTGIR (PTGIR, 0.1μM tracer); 0.98 on PTGIR (PTGIR, 1μM tracer). In addition, the “NanoBRET Fold Response” value on LHCGR (LHCGR, 0.1μM tracer) is reported as 0.93; on LHCGR (LHCGR, 1μM tracer), 1.05.
In the case of `COc1ccc2[nH]c(-c3ccc(CNC(=O)CCOCCOCCOCCOCCNC(=O)CCc4ccc5n4[B-](F)(F)[N+]4=C(c6ccc[nH]6)C=CC4=C5)cc3)c(CCNC(C)=O)c2n1` [AzomelatoninICO9-2-NB590], the “NanoBRET Fold Response” value was 1.13 at CCKBR (0.1μM tracer); 1.16 on CCKBR (1μM tracer); 0.99 at C5AR1 (0.1μM tracer); 0.98 at C5AR1 (1μM tracer); 1.03 at P2RY4 (0.1μM tracer); 1.13 at P2RY4 (1μM tracer). The “NanoBRET Fold Response” value on P2RY12 (0.1μM tracer) was 1.15; at P2RY12 (1μM tracer) it was 1.05; on PTGER2 (0.1μM tracer), 1.01; at PTGER2 (1μM tracer) it was 0.97; on PTGIR (0.1μM tracer), 1.03; at PTGIR (1μM tracer), 0.98. Also, the “NanoBRET Fold Response” value on LHCGR (0.1μM tracer) is 1.01; on LHCGR (1μM tracer), 0.88.
Regarding `CN1CCN(C2=Nc3cc(Cl)ccc3Nc3ccc(CNC(=O)CCOCCOCCOCCOCCNC(=O)CCc4ccc5n4[B-](F)(F)[N+]4=C(c6ccc[nH]6)C=CC4=C5)cc32)CC1` [Clozapine-b-2-NB590], the “NanoBRET Fold Response” value is reported as 0.99 on CCKBR (CCKBR, 0.1μM tracer); 1.07 at CCKBR (CCKBR, 1μM tracer); 0.98 on C5AR1 (C5AR1, 0.1μM tracer); 1.02 on C5AR1 (C5AR1, 1μM tracer); 0.97 on P2RY4 (P2RY4, 0.1μM tracer); 0.97 on P2RY4 (P2RY4, 1μM tracer). Besides, the “NanoBRET Fold Response” value on P2RY12 (P2RY12, 0.1μM tracer) worked out at 1.00; on P2RY12 (P2RY12, 1μM tracer) it was 0.97; at PTGER2 (PTGER2, 0.1μM tracer), 1.01; at PTGER2 (PTGER2, 1μM tracer), 0.98; at PTGIR (PTGIR, 0.1μM tracer) it was 0.98; on PTGIR (PTGIR, 1μM tracer), 1.00. Also, the “NanoBRET Fold Response” value came out at 1.06 on LHCGR (LHCGR, 0.1μM tracer) and 0.99 at LHCGR (LHCGR, 1μM tracer).
With `COc1ccccc1N1CCN(CCCCN2C(=O)c3ccc(CNC(=O)CCOCCNC(=O)c4ccc(CNC(=O)CCc5ccc6n5[B-](F)(F)[N+]5=C(c7ccc[nH]7)C=CC5=C6)cc4)cc3C2=O)CC1` [NAN-190-3-NB590], the “NanoBRET Fold Response” value turned out to be 0.98 on CCKBR (CCKBR, tracer 0.1μM); 0.94 on CCKBR (CCKBR, tracer 1μM); 1.02 on C5AR1 (C5AR1, tracer 0.1μM); 1.10 at C5AR1 (C5AR1, tracer 1μM); 0.86 on P2RY4 (P2RY4, tracer 0.1μM); 0.82 at P2RY4 (P2RY4, tracer 1μM). Further, the “NanoBRET Fold Response” value is reported as 1.12 on P2RY12 (P2RY12, tracer 0.1μM); 1.10 on P2RY12 (P2RY12, tracer 1μM); 1.06 at PTGER2 (PTGER2, tracer 0.1μM); 1.00 on PTGER2 (PTGER2, tracer 1μM); 0.95 on PTGIR (PTGIR, tracer 0.1μM); 1.01 at PTGIR (PTGIR, tracer 1μM). In addition, the “NanoBRET Fold Response” value at LHCGR (LHCGR, tracer 0.1μM) worked out at 0.98; on LHCGR (LHCGR, tracer 1μM) it was 1.08.
On to `N#CN=C(NCCCOc1cccc(CN2CCCCC2)c1)NCCNC(=O)CCOCCOCCOCCOCCNC(=O)CCc1ccc2n1[B-](F)(F)[N+]1=C(c3ccc[nH]3)C=CC1=C2` [Aminopotentidine-2-NB590], for which the “NanoBRET Fold Response” value at CCKBR (CCKBR, tracer 0.1μM) was determined as 1.17; at CCKBR (CCKBR, tracer 1μM), 1.04; at C5AR1 (C5AR1, tracer 0.1μM) it was 0.99; at C5AR1 (C5AR1, tracer 1μM), 0.98; on P2RY4 (P2RY4, tracer 0.1μM), 1.09; at P2RY4 (P2RY4, tracer 1μM), 1.07. Moreover, the “NanoBRET Fold Response” value on P2RY12 (P2RY12, tracer 0.1μM) is on record as 0.94; on P2RY12 (P2RY12, tracer 1μM), 0.99; on PTGER2 (PTGER2, tracer 0.1μM), 0.99; at PTGER2 (PTGER2, tracer 1μM), 1.03; on PTGIR (PTGIR, tracer 0.1μM), 1.03; on PTGIR (PTGIR, tracer 1μM), 1.03. Also, the “NanoBRET Fold Response” value on LHCGR (LHCGR, tracer 0.1μM) is recorded as 1.03; on LHCGR (LHCGR, tracer 1μM), 1.00.
Take `CN(C)CCC=C1c2ccccc2CCc2ccc(C(=O)NCCNC(=O)CCOCCOCCOCCOCCNC(=O)CCc3ccc4n3[B-](F)(F)[N+]3=C(c5ccc[nH]5)C=CC3=C4)cc21` [Amitriptyline-b-2-NB590]: the “NanoBRET Fold Response” value at CCKBR (setting [1]) stood at 1.10; at CCKBR (tracer at 1μM, listed as amitriptyline-b-2-NB590), 1.09; at C5AR1 (setting [1]) it was 1.01; on C5AR1 (tracer at 1μM), 0.97; at P2RY4 (setting [1]), 1.07; on P2RY12 (setting [1]) it was 0.96. In addition, the “NanoBRET Fold Response” value was determined as 1.01 at PTGER2 (tracer at 0.1μM); 1.01 at PTGER2 (tracer at 1μM); 0.99 at PTGIR (PTGIR, tracer 0.1μM); 0.98 on PTGIR (PTGIR, tracer 1μM); 1.05 at LHCGR (LHCGR, tracer 0.1μM); 1.00 on LHCGR (LHCGR, tracer 1μM).
